# According to US12268739B2, “Use of toll-like receptor 2 (TLR-2) agonist for modulating human immune response” (Children's Medical Center Corporation, priority 2018, dated 2025):
# “Also recorded” adds a separate entry of the source.
# Test system: NF-κB reporter THP1 cells
# Assay: NF-kB-induced luminescence HTS in THP1-Lucia cells (384-well)
# Format: cell-based, human
# Settings: ranked at 3.3 μM; ~200,000 compounds tested; listed as 080
# Excerpt: HTS Overview: To identify immunomodulators/adjuvants that robustly activate human immune cells, ˜200,000 small molecules were screening in a THP1 cell-based assay. The chemical libraries screened included known bioactive and commercial libraries from various sources including commercial libraries such as ChemDiv, ChemBridge, and Asinex. All libraries were owned and provided by the Institute of Chemistry and Cell Biology (ICCB)—Longwood (Harvard Medical School). The project primary screen incorporated two distinct arms: a) a luciferase-based screen which corresponds to the relative activation of the NF-κB reporter; and b) a fluorescence-based screen, corresponding to the phenotypic adherence, a distinct marker of cell activation, of the human monocytic THP-1 cell lines. Described herein are small molecules identified in the screen that induce NF-kB activity based on a luciferase-based THP-1 cell screen.
# THP-1 Cell Line and Culture Conditions. The THP1-Lucia™ cell line was obtained from Invivogen (San Diego, CA). THP1-Lucia cells, which are human monocytic cells derived from the blood of a child with leukemia, contain an NF-kB-inducible Luc reporter construct. This allows NF-kB activation to be measured by quantifying the luminescence from the secreted luciferase enzyme. THP1-Lucia cells were cultured in RPMI 1640 supplemented with 10% non-heat inactivated fetal bovine serum (FBS), 10 mM HEPES, 1.0 mM sodium pyruvate, 50 ug/ml Pen-Strep, and 100 ug/mL Normocin™. Once cultured, the cells were stored in a 37° C. incubator with 5% CO2 and a humidified atmosphere. Cells were passaged every 2-3 days and not allowed to exceed a concentration of 2.0×10^6 cells/ml media.
# NF-kB-induced Luminescence Assay. THP1-Lucia cells between passage 15 and 18 and suspended in culture medium were dispensed into 384-well black clear-bottom plates (Corning 3712) at 30,000 cells/30 μl/well using a Combi liquid dispenser. To allow comparison to a benchmark small molecule with known immune stimulating activity, cells at the same concentration were stimulated with 50 μM R848, a TLR7/8 agonist, in 0.3% DMSO and added to every other well of column 24, which was left empty of cells, by multichannel pipette at the same volume. Five μl of 700 nM Phorbol myristate acetate (PMA) in THP1 culture media and 2.3% DMSO, a known peripheral blood cell mitogen, was added to every other well of column 23 by multichannel pipette (final concentration in well: 100 nM in 0.3% DMSO). Five μl of THP1 culture media with 2.3% DMSO was added to the remaining wells of column 23 by multichannel pipette (final concentration 0.3% DMSO). One hundred nl aliquots of library compounds diluted in 100% DMSO were transferred from their original 384-well plates to the assay plates using a Seiko pin transfer machine. Each library plate was pinned in duplicate, yielding two assay plates with identical conditions for comparison. Plates were then incubated for 24 hours at 37 C with 5% CO2 in humid conditions. Following incubation, 10 μL of supernatant was removed from each well and transferred to a white plate (Corning 3570) using a Vprep liquid transfer machine. 10 μL of recombinant Lucia protein (Invivogen) diluted 1:2000 in THP1 culture media was added to empty well 24P. Using a Combi liquid dispenser, 50 μL/well of Quanti-Luc substrate (Invivogen) diluted 1:3 in sterile water was added to the assay plate. Immediately after adding the substrate, the luminescence was read using a PerkinElmer Envision plate reader.
smiles,measurement,value
CNC(=O)c1c(NC(=O)c2ccc(S(=O)(=O)N(C)C)cc2)sc2c1CCC2 [Compound 80],Efficacy in activating NF-κB in THP1 cells (screening hits),most effective NF-κB activators; also recorded: most effective NF-kB activators
